For experiment [1], the target named is T1, β-amyloid Aβ21–40 (C-terminal fragment of Aβ1–40) (Homo sapiens, UniProt P05067).
T1 construct: gene APP
The experiment in a line: UV/Vis titration; ESI-MS […] adduct; also ThT aggregation. It is filed as binding.

For experiment [2], the target named is T1, β-amyloid Aβ21–40 (C-terminal fragment of Aβ1–40). The experiment in a line: UV/Vis titration; ESI-MS […] adduct; also ThT aggregation and CD. The class given is binding.

T1 sequence (P05067 692-711): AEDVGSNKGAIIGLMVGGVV

With `[Cl][Pt-2]1([Cl])[n+]2cccc3ccc4ccc[n+]1c4c32` [Pt-phen, (SP-4-2)-dichlorido(1,10-phenanthroline)platinum(II)], in experiment [1], a half-maximal response (EC50) required 49 ± 20 µM. `[Cl][Pt-2]12[n+]3ccccc3-c3cccc([n+]31)-c1cccc[n+]12` [Pt-terpy, (SP-4-2)-chlorido(2,2′:6′,2′′-terpyridine)platinum(II) chloride] had an EC50 in experiment [2] of 68 ± 14 µM.

The record behind these values is PMC7998721, “A Comparative Study of the Effects of Platinum (II) Complexes on β-Amyloid Aggregation: Potential Neurodrug Applications” (International Journal of Molecular Sciences, 2021).
